Read-outs that look alike come from different tables or passages of the source.
Tests used:
[1] = molecular target: T1, hSCN3A (Homo sapiens, UniProt Q9NY46); experiment: Whole-cell patch-clamp electrophysiology (conventional or PatchXpress), HEK cells expressing hSCN3A, estimated IC-50; format: cell-based; conditions: read-out: SCN3A EIC-50
T1 construct: expressed in transfected cells
Procedure, shortened: (§1)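 Current through each channel was evoked by a 20 ms step to 0 mV following an 8 s conditioning prepulse at the cell's own half-inactivation voltage. Recordings used HEK lines stably expressing the channel, conventional or PatchXpress patch clamp, room temperature, pH 7.4 bath; inhibition taken as pre/post-compound amplitude change.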

[2] = molecular target: T2, hSCN9A (Homo sapiens, UniProt Q15858); experiment: Whole-cell patch-clamp electrophysiology (conventional or PatchXpress), HEK cells expressing hSCN9A, estimated IC-50; format: cell-based; conditions: read-out: SCN9A EIC-50
T2 construct: expressed in transfected cells
Procedure, shortened: as §1

[3] = estimated IC-50, HEK cells expressing hSCN3A, class symbols or bounds
[4] = estimated IC-50, HEK cells expressing hSCN9A, class symbols or bounds
[5] = Table V, estimated IC-50 from single point electrophysiology, cells clamped at V1/2
[6] = commercial compounds (second Table VI), estimated IC-50 from single point electrophysiology

T1 sequence (Q9NY46 whole entry): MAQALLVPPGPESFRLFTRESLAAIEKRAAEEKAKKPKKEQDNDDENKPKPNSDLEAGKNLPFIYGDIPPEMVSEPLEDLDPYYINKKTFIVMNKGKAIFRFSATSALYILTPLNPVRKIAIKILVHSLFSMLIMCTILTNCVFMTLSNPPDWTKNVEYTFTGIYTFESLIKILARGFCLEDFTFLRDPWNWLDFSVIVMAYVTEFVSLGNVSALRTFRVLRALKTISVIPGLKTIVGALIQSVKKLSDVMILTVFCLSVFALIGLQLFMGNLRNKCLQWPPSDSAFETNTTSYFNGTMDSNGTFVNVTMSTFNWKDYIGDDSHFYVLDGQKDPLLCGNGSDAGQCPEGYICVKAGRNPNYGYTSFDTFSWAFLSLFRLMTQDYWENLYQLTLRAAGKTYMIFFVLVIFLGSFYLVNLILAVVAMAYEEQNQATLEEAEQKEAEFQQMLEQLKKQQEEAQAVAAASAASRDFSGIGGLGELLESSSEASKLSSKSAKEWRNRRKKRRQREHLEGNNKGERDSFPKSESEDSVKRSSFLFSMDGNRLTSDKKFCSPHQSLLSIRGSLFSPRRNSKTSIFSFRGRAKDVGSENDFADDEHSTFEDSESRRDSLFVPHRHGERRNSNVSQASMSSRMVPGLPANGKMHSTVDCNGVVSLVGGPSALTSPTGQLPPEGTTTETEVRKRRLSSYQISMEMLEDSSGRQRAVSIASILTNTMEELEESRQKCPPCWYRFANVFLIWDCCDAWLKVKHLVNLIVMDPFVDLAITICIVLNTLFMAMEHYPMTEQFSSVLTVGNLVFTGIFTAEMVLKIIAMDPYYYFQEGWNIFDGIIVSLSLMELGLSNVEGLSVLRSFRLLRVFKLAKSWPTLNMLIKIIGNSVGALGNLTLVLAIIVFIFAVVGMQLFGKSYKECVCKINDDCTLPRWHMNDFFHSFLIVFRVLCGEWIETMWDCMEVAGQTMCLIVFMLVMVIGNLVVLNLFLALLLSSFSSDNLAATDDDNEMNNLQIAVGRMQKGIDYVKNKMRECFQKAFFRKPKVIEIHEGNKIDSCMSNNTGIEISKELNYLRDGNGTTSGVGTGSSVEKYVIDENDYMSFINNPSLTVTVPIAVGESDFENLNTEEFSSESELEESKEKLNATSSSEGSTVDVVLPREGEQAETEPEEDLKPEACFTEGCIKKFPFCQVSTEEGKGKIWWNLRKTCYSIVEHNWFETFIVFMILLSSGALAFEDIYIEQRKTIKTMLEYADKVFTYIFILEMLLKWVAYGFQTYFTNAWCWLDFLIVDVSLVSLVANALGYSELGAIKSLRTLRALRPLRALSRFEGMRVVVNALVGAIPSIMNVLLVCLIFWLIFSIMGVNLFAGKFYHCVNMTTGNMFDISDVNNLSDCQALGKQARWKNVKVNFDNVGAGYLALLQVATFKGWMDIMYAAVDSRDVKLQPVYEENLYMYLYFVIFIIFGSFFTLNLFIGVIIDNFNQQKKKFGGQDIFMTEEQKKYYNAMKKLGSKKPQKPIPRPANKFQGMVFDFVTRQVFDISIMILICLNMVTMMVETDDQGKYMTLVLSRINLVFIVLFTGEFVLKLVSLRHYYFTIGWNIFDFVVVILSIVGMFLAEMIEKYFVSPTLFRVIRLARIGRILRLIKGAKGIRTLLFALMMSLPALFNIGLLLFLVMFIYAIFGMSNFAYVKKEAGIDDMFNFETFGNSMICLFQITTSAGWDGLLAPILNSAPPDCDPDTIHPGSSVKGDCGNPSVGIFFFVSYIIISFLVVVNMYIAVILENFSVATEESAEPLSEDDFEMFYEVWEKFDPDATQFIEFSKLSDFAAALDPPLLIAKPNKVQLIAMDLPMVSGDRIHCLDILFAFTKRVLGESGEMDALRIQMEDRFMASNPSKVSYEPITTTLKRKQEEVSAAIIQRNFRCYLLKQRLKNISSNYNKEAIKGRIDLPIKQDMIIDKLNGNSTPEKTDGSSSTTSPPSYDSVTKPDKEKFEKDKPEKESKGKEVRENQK
T2 sequence (Q15858 whole entry): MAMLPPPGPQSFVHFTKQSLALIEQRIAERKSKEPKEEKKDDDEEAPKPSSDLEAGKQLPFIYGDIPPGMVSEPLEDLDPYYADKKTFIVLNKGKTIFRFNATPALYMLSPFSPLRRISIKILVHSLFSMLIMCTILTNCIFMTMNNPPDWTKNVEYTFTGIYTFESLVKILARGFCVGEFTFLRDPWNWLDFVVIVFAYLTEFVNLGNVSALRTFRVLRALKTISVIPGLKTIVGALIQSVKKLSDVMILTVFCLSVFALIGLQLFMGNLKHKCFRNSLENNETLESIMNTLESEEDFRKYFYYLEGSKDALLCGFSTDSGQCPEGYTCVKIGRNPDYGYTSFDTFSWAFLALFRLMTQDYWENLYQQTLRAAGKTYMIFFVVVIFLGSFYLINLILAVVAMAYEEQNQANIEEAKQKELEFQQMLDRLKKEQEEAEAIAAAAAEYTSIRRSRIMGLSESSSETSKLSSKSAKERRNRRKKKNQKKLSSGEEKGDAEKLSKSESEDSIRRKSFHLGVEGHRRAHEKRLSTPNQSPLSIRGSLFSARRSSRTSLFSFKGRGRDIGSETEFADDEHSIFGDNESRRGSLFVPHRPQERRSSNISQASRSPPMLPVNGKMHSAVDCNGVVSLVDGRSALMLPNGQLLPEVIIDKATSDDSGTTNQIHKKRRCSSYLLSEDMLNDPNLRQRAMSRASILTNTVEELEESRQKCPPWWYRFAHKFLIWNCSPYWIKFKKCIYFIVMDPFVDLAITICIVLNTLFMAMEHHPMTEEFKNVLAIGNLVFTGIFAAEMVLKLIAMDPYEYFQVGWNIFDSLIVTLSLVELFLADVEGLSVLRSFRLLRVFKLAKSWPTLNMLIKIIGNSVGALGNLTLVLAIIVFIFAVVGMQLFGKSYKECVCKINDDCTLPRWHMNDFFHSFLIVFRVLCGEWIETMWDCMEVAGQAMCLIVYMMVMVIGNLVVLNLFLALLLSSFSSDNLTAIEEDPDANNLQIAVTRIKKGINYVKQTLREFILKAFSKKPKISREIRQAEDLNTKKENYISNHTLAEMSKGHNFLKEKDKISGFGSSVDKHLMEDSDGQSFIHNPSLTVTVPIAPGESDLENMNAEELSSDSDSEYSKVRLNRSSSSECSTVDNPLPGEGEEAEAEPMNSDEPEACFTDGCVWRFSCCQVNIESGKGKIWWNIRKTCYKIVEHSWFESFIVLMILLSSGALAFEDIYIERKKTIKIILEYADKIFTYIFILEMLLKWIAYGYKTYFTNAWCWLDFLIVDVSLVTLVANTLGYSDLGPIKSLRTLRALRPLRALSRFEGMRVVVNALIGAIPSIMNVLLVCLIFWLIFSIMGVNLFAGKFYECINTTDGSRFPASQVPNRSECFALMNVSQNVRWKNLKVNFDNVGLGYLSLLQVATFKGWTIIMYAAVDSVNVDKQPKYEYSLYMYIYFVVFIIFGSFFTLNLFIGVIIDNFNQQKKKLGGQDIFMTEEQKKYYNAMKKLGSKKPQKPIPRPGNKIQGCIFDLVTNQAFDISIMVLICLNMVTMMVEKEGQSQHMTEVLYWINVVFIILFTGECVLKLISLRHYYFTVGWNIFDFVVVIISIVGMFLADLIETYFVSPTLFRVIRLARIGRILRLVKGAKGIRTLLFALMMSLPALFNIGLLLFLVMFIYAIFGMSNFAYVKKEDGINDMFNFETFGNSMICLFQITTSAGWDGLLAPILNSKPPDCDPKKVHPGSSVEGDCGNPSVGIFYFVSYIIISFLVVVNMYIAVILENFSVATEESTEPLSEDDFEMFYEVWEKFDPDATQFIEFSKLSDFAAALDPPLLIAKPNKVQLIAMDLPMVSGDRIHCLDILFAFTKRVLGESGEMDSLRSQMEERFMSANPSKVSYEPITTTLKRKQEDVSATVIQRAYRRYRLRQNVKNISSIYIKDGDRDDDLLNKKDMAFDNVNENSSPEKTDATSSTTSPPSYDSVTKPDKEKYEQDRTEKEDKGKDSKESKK

Structure (SMILES)	IC50 [1, 3] [µM]	IC50 [2, 4] [µM]	also measured
O=S(=O)(Nc1nccs1)c1ccc(Nc2ccn(Cc3ccc(Cl)cc3)n2)c(F)c1 [Compound 184, 4-(1-(4-chlorobenzyl)-1H-pyrazol-3-ylamino)-3-fluoro-N-(thiazol-2-yl)benzenesulfonamide]	< 2	< 2	
O=S(=O)(Nc1nccs1)c1ccc(Nc2nnc(Cc3ccc(C(F)(F)F)cc3)o2)cc1 [Compound 28, N-(thiazol-2-yl)-4-(5-(4-(trifluoromethyl)benzyl)-1,3,4-oxadiazol-2-ylamino)benzenesulfonamide]			IC50 [1, 5]: < 2 µM; IC50 [2, 5]: > 10 µM
O=S(=O)(Nc1nccs1)c1ccc(Nc2nc(CCC3CCCC3)cs2)cc1 [Compound 51, 4-(4-(2-cyclopentylethyl)thiazol-2-ylamino)-N-(thiazol-2-yl)benzenesulfonamide]	< 2	2 to 10	
O=S(=O)(Nc1nccs1)c1ccc(Nc2ncc(S(=O)(=O)c3ccc(Cl)cc3)s2)cc1F [Compound 105, 4-(5-(4-chlorophenylsulfonyl)thiazol-2-ylamino)-2-fluoro-N-(thiazol-2-yl)benzenesulfonamide]	< 2	> 10	
O=S(=O)(Nc1nccs1)c1ccc(Nc2nc(-c3ccc(C(F)(F)F)cc3F)cs2)cc1 [Compound 90, 4-(4-(2-fluoro-4-(trifluoromethyl)phenyl)thiazol-2-ylamino)-N-(thiazol-2-yl)benzenesulfonamide]	< 2	> 1	
CC(=O)c1sc(Nc2ccc(S(=O)(=O)Nc3nccs3)c(F)c2)nc1C [Compound 9, 4-(5-Acetyl-4-methyl-thiazol-2-ylamino)-2-fluoro-N-thiazol-2-yl-benzenesulfonamide]			IC50 [1, 5]: 2 to 10 µM; IC50 [2, 5]: 2 to 10 µM
Cc1cc(Nc2ccc(S(=O)(=O)Nc3nccs3)c(F)c2)n(-c2ccccc2)n1 [Compound 30, 2-fluoro-4-(3-methyl-1-phenyl-1H-pyrazol-5-ylamino)-N-(thiazol-2-yl)benzenesulfonamide]			IC50 [1, 5]: < 2 µM; IC50 [2, 5]: < 2 µM
CN(CCc1ccccc1)Cc1csc(Nc2ccc(S(=O)(=O)Nc3nccs3)cc2)n1 [Compound 67, 4-(4-((methyl(phenethyl)amino)methyl)thiazol-2-ylamino)-N-(thiazol-2-yl)benzenesulfonamide]	< 2	2 to 10	
O=S(=O)(Nc1nccs1)c1ccc(Nc2nc(CNCCOc3ccccc3)cs2)cc1 [Compound 57, 4-(4-((2-phenoxyethylamino)methyl)thiazol-2-ylamino)-N-(thiazol-2-yl)benzenesulfonamide]	2 to 10	> 1	
Cc1ccc(-c2nnc(Nc3ccc(S(=O)(=O)Nc4nccs4)cc3)c3ccccc23)cc1 [Compound 41, N-(thiazol-2-yl)-4-(4-p-tolylphthalazin-1-ylamino)benzenesulfonamide, reference compound]			IC50 [1, 6]: 1.61 µM; IC50 [2, 6]: > 3 µM
O=S(=O)(Nc1nccs1)c1ccc(Nc2nc(C3(c4ccc(Cl)cc4)CCCC3)cs2)cc1 [Compound 64, 4-(4-(1-(4-chlorophenyl)cyclopentyl)thiazol-2-ylamino)-N-(thiazol-2-yl)benzenesulfonamide]	< 2	> 1	
CC(C)(C)c1csc(Nc2ccc(S(=O)(=O)Nc3nccs3)cn2)n1 [Compound 106, 6-(4-tert-butylthiazol-2-ylamino)-N-(thiazol-2-yl)pyridine-3-sulfonamide]	2 to 10	> 1	
O=S(=O)(Nc1nccs1)c1ccc(Nc2ccn(Cc3ccc(Cl)cc3)n2)cc1Cl [Compound 263, 2-chloro-4-(1-(4-chlorobenzyl)-1H-pyrazol-3-ylamino)-N-(thiazol-2-yl)benzenesulfonamide]	< 2	< 2	
CC(C)(C)c1csc(Nc2ccc(S(=O)(=O)Nc3nccs3)c(F)c2)n1 [Compound 7, 4-(4-Tert-butyl-thiazol-2-ylamino)-2-fluoro-N-thiazol-2-yl-benzenesulfonamide]			IC50 [1, 5]: < 2 µM; IC50 [2, 5]: 2 to 10 µM
N#Cc1ccc(Cc2csc(Nc3ccc(S(=O)(=O)Nc4nccs4)c(F)c3)n2)cc1 [Compound 5, 4-[4-(4-Cyano-benzyl)-thiazol-2-ylamino]-2-fluoro-N-thiazol-2-yl-benzenesulfonamide]			IC50 [1, 5]: < 2 µM; IC50 [2, 5]: 2 to 10 µM
O=S(=O)(Nc1nccs1)c1ccc(Nc2nc(C3CC3c3ccccc3)cs2)cc1 (stereo not drawn) [Compound 53, 4-(4-(2-phenylcyclopropyl)thiazol-2-ylamino)-N-(thiazol-2-yl)benzenesulfonamide]	< 2	> 1	
CS(=O)(=O)c1ccc(Cc2csc(Nc3ccc(S(=O)(=O)Nc4nccs4)c(F)c3)n2)cc1 [Compound 4, 2-Fluoro-4-[4-(4-methanesulfonyl-benzyl)-thiazol-2-ylamino]-N-thiazol-2-yl-benzenesulfonamide]			IC50 [1, 5]: < 2 µM; IC50 [2, 5]: 2 to 10 µM
Cn1nc(C(C)(C)C)cc1Nc1ccc(S(=O)(=O)Nc2nccs2)c(F)c1 [Compound 193, 4-(3-tert-butyl-1-methyl-1H-pyrazol-5-ylamino)-2-fluoro-N-(thiazol-2-yl)benzenesulfonamide]	< 2	< 2	
O=S(=O)(Nc1nccs1)c1cc(F)c(Nc2ccn(Cc3ccc(Cl)cc3)n2)cc1F [Compound 206, 4-(1-(4-chlorobenzyl)-1H-pyrazol-3-ylamino)-2,5-difluoro-N-(thiazol-2-yl)benzenesulfonamide]	< 2	< 2	
O=S(=O)(Nc1nccs1)c1ccc(Nc2ccccc2-c2ccccc2)cc1F [Compound 172, 4-(biphenyl-2-ylamino)-2-fluoro-N-(thiazol-2-yl)benzenesulfonamide]	< 2	< 2	
O=S(=O)(Nc1nccs1)c1ccc(Nc2nnc(-c3ccccc3)c3ccccc23)cc1 [Compound 42, 4-(4-phenylphthalazin-1-ylamino)-N-(thiazol-2-yl)benzenesulfonamide, reference compound]			IC50 [1, 6]: 2.03 µM; IC50 [2, 6]: > 3 µM

Now from value to molecule, other results behind:

IC50 [1, 3] [µM]	IC50 [2, 4] [µM]	Structure (SMILES)	also measured
< 2	2 to 10	Cn1c(Nc2ccc(S(=O)(=O)Nc3nccs3)cc2)nc2ccc(Cl)cc21 [Compound 101, 4-(6-chloro-1-methyl-1H-benzo[d]imidazol-2-ylamino)-N-(thiazol-2-yl)benzenesulfonamide]	
< 2	2 to 10	O=S(=O)(Nc1nccs1)c1ccc(Nc2nc3cc(Cl)ccc3[nH]2)cc1 [Compound 99, 4-(5-chloro-1H-benzo[d]imidazol-2-ylamino)-N-(thiazol-2-yl)benzenesulfonamide]	
< 2	2 to 10	Cc1csc(NS(=O)(=O)c2ccc(Nc3nc(Cc4ccc(Cl)cc4)cs3)cc2F)n1 [Compound 109, 4-(4-(4-chlorobenzyl)thiazol-2-ylamino)-2-fluoro-N-(4-methylthiazol-2-yl)benzenesulfonamide]	
< 2	2 to 10	O=S(=O)(Nc1nccs1)c1ccc(Nc2nc(Cc3ccc(Cl)cc3)cs2)nc1 [Compound 107, 6-(4-(4-chlorobenzyl)thiazol-2-ylamino)-N-(thiazol-2-yl)pyridine-3-sulfonamide]	
< 2	< 2	Cc1cc(Nc2ccc(S(=O)(=O)Nc3ncc(Cl)s3)c(F)c2)n(-c2ccccc2)n1 [Compound 162, N-(5-chlorothiazol-2-yl)-2-fluoro-4-(3-methyl-1-phenyl-1H-pyrazol-5-ylamino)benzenesulfonamide]	
< 2	2 to 10	O=S(=O)(Nc1nccs1)c1ccc(Nc2cnn(CC(F)(F)F)c2)cc1F [Compound 130, 2-fluoro-N-(thiazol-2-yl)-4-(1-(2,2,2-trifluoroethyl)-1H-pyrazol-4-ylamino)benzenesulfonamide]	
< 2	< 2	O=S(=O)(Nc1nccs1)c1ccc(Nc2ccn(Cc3ccc(C(F)(F)F)cc3)n2)cc1F [Compound 183, 2-fluoro-N-(thiazol-2-yl)-4-(1-(4-(trifluoromethyl)benzyl)-1H-pyrazol-3-ylamino)benzenesulfonamide]	
< 2	< 2	O=S(=O)(Nc1nccs1)c1ccc(Nc2nc(CC(c3ccccc3)c3ccccc3)cs2)cc1 [Compound 49, 4-(4-(2,2-diphenylethyl)thiazol-2-ylamino)-N-(thiazol-2-yl)benzenesulfonamide]	
< 2	< 2	COc1cc(Cl)ccc1-c1cc(Nc2ccc(S(=O)(=O)Nc3nccs3)c(F)c2)n(C)n1 [Compound 222, 4-(3-(4-chloro-2-methoxyphenyl)-1-methyl-1H-pyrazol-5-ylamino)-2-fluoro-N-(thiazol-2-yl)benzenesulfonamide]	
> 1	2 to 10	CCN(CC)Cc1csc(Nc2ccc(S(=O)(=O)Nc3nccs3)cc2)n1 [Compound 68, 4-(4-((diethylamino)methyl)thiazol-2-ylamino)-N-(thiazol-2-yl)benzenesulfonamide]	
2 to 10	2 to 10	O=C(Cn1ncc2cc(S(=O)(=O)Nc3nccs3)ccc21)c1ccc(F)cc1 [Compound 280, 1-(2-(4-fluorophenyl)-2-oxoethyl)-N-(thiazol-2-yl)-1H-indazole-5-sulfonamide]	
< 2	< 2	Cc1cc(Nc2ccc(S(=O)(=O)Nc3nccs3)c(F)c2)n(-c2ccccc2C)n1 [Compound 146, 2-fluoro-4-(3-methyl-1-o-tolyl-1H-pyrazol-5-ylamino)-N-(thiazol-2-yl)benzenesulfonamide]	
